# Where a SMILES comes first, the peptide text is derived from it. [ ]: non-standard residue; d: D form. pS = N[C@@H](COP(=O)(O)O)C(=O)O
# Legend:
# Ess1 [1] = target: T1, Ess1 (Saccharomyces cerevisiae, UniProt P22696, R8S); assay: Competition fluorescence anisotropy (unlabeled CTD peptides vs. FITC-1R-CTD for Ess1 binding); details: for Normalized Anisotropy: competition vs FITC-1R-CTD, mean
# T1 construct: Full-length Ess1 or Ess1 C120S plasmid was used to transform E. coli cells; 6xHis (cleaved yes); made in house; host or cells: E. coli Rosetta II (DE3) pLysS, isotope-labeled M9 minimal media
# T1 sequence (P22696 whole entry R8S): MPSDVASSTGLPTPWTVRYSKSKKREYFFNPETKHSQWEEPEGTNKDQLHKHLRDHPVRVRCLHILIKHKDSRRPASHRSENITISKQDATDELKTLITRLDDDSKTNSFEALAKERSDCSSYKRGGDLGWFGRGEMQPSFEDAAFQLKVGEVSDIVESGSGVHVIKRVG
# Method: A 1 repeat CTD peptide labeled with FITC at its N-terminus was used as a probe (FITC-1R, Table 2). […] Each point represents an average (±SD) of n = 2 or 3 from independent experiments.
# Fluorescence anisotropy measurements were performed in a Hidex Sense microplate reader using an excitation wavelength of 485 nm and an emission wavelength of 535 nm. Measurements were performed in 20 mM Tris pH 8.0, 3 mM TCEP buffer. […] Competition data was used to calculate IC50 values to compare the affinity differences between all five substrates (Eq. (1)).1 Competitionmodel:f1=min+max−min/1+x/IC50∧−Hillslope
# [2] = target: 1R CTD peptide CTD 1 repeat (Saccharomyces cerevisiae) (UniProt P04050); details: cited from earlier work
# 1R CTD peptide CTD 1 repeat (Saccharomyces cerevisiae), sequence (P04050 whole entry, looked up, tested part not stated): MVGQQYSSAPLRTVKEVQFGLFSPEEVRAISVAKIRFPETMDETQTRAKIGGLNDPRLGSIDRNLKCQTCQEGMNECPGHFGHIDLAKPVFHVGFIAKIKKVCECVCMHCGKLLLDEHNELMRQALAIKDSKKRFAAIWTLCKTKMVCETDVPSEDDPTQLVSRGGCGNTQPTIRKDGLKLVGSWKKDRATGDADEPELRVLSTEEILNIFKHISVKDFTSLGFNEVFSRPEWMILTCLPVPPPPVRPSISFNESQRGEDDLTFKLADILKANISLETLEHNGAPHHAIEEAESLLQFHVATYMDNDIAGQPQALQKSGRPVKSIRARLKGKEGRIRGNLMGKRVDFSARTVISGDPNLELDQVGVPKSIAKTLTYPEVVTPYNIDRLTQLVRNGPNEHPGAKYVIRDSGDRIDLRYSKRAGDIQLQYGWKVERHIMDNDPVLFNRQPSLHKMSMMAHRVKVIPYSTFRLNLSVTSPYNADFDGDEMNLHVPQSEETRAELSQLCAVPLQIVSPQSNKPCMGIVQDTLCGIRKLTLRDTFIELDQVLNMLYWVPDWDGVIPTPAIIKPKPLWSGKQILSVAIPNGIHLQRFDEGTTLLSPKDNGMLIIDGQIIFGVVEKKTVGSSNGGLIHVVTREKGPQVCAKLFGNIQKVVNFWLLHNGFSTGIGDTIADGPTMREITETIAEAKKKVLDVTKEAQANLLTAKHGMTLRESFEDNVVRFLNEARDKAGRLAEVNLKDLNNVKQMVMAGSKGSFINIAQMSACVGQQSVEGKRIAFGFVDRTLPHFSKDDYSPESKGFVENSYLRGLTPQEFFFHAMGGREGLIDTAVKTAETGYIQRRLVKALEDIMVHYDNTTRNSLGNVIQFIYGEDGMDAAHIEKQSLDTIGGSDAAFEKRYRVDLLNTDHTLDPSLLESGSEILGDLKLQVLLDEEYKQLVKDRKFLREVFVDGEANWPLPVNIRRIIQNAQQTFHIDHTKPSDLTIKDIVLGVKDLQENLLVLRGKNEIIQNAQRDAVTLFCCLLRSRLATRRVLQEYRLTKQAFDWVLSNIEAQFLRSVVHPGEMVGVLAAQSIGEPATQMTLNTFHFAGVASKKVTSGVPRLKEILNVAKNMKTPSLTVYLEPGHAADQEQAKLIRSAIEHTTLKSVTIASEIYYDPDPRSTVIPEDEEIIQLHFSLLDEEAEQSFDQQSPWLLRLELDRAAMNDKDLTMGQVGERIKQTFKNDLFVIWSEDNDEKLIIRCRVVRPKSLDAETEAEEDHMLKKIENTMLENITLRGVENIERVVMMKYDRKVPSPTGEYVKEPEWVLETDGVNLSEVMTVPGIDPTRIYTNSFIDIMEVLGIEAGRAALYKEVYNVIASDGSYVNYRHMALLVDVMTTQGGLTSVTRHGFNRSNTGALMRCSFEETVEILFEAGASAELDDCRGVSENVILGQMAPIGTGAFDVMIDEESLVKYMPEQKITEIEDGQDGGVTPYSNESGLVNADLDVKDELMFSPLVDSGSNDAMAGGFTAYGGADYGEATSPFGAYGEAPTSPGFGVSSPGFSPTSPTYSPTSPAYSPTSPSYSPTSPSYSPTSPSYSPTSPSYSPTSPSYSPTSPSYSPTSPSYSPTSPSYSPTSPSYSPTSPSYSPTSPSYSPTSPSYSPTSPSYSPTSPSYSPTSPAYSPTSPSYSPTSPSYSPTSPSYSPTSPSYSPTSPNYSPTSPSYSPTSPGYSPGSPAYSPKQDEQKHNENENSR
# Ess1 [3] = target: T1, Ess1; assay: NMR 1H-15N HSQC titration, Kd determination (single-site model); format: binding
# Method: Binding was monitored by recording ^1H–^15N HSQC spectra at different peptide to protein ratios. For each backbone amide, we assumed that the CSP was a weighted average between the free (Δδ = 0) and ligand-bound (Δδ = Δδbound) states, such that Δδ = Δδbound * [PL]/[Ptotal]. Here, [PL] and [Ptotal] represent the ligand-bound protein concentration, and Ptotal is the total protein concentration of Ess1. The CSP for each amide was calculated using the equation CSP=ΔδH^2+ΔδN/5^2 where ΔδH and ΔδN represent the change in chemical shift in the ^1H and ^15N dimensions, such that Δδ = 0 when calculating the CSP for the reference spectrum (in the absence of ligand). To obtain the dissociation binding constant, Kd, we used the single-site binding equation, PL=(([Ptotal]+[Ltotal]+Kd)−([Ptotal]+[Ltotal]+Kd)^2−4*[Ptotal]*[Ltotal])/2 , where [Ptotal] and [Ltotal] are total protein (Ess1) and ligand (CTD peptide) concentrations, respectively. Fitting was performed using an in-house Matlab script. […] Errors represent standard deviation of residue-specific Kd values.
# [4] = residue-specific, 1 to 1 binding fit of NMR titration
# Ess1 (from UniProt P22696), sequence (P22696 whole entry): as the sequence (P22696 whole entry R8S) above, with S8R counted along it
compound,measurement,setting,value
CC(=O)N[C@@H](Cc1ccc(O)cc1)C(=O)N[C@@H](CO)C(=O)N1CCC[C@H]1C(=O)N[C@H](C(=O)N[C@@H](COP(=O)(O)O)C(=O)N1CCC[C@H]1C(=O)N[C@@H](CO)C(=O)N[C@@H](Cc1ccc(O)cc1)C(=O)N[C@@H](CO)C(=O)N1CCC[C@H]1C(=O)N[C@H](C(=O)N[C@@H](COP(=O)(O)O)C(=O)N1CCC[C@H]1C(=O)N[C@@H](CO)C(N)=O)[C@@H](C)O)[C@@H](C)O [2R],IC50,Ess1 [1],59 µM
same,Normalized Anisotropy,Ess1 [1]; [2R CTD] 29.25 μM,0.8399
same,Normalized Anisotropy,Ess1 [1]; [2R CTD] 58.5 μM,0.6905
same,Normalized Anisotropy,Ess1 [1]; [2R CTD] 234 μM,0.4873
Ess1 (from UniProt P22696),Kd,[2],60 µM
CC(=O)N[C@@H](C)C(=O)N[C@@H](CO)C(=O)N[C@@H](Cc1ccc(O)cc1)C(=O)N[C@@H](CO)C(=O)N1CCC[C@H]1C(=O)N[C@H](C(=O)N[C@@H](COP(=O)(O)O)C(=O)N1CCC[C@H]1C(=O)N[C@@H](CO)C(=O)N[C@@H](Cc1ccc(O)cc1)C(=O)N[C@@H](CO)C(N)=O)[C@@H](C)O [1R] (Ac-ASYSPT[pS]PSYS-NH2),IC50,Ess1 [1],259 ± 33 µM
same,Normalized Anisotropy,Ess1 [1]; [1R CTD] 21 μM,0.9587
same,Normalized Anisotropy,Ess1 [1]; [1R CTD] 42 μM,0.9533
same,Normalized Anisotropy,Ess1 [1]; [1R CTD] 84 μM,0.9581
same,Normalized Anisotropy,Ess1 [1]; [1R CTD] 280 μM,0.8033
same,Normalized Anisotropy,Ess1 [1]; [1R CTD] 336 μM,0.7637
same,Normalized Anisotropy,Ess1 [1]; [1R CTD] 560 μM,0.6982
same,Kd,Ess1 [3],155 µM
same,"Kd, Ess1 residue 16",Ess1 [3]; [4],119.2 µM
same,"Kd, Ess1 residue 17",Ess1 [3]; [4],111.1 µM
same,"Kd, Ess1 residue 18",Ess1 [3]; [4],151.9 µM
same,"Kd, Ess1 residue 19",Ess1 [3]; [4],153.7 µM
same,"Kd, Ess1 residue 23",Ess1 [3]; [4],148.5 µM
same,"Kd, Ess1 residue 25",Ess1 [3]; [4],124.8 µM
same,"Kd, Ess1 residue 26",Ess1 [3]; [4],196.0 µM
same,"Kd, Ess1 residue 27",Ess1 [3]; [4],128.9 µM
same,"Kd, Ess1 residue 28",Ess1 [3]; [4],161.3 µM
same,"Kd, Ess1 residue 29",Ess1 [3]; [4],141.4 µM
same,"Kd, Ess1 residue 30",Ess1 [3]; [4],103.1 µM
same,"Kd, Ess1 residue 34",Ess1 [3]; [4],233.3 µM
same,"Kd, Ess1 residue 35",Ess1 [3]; [4],274.5 µM
same,"Kd, Ess1 residue 37",Ess1 [3]; [4],153.0 µM
same,"Kd, Ess1 residue 38",Ess1 [3]; [4],102.8 µM
same,"Kd, Ess1 residue 39",Ess1 [3]; [4],153.9 µM
same,"Kd, Ess1 residue 40",Ess1 [3]; [4],157.5 µM
same,"Kd, Ess1 residue 48",Ess1 [3]; [4],156.8 µM
same,"Kd, Ess1 residue 49",Ess1 [3]; [4],216.2 µM
same,"Kd, Ess1 residue 52",Ess1 [3]; [4],132.6 µM
same,"Kd, Ess1 residue 58",Ess1 [3]; [4],96.2 µM
same,"Kd, Ess1 residue 59",Ess1 [3]; [4],156.4 µM
same,"Kd, Ess1 residue 64",Ess1 [3]; [4],134.1 µM
same,"Kd, Ess1 residue 70",Ess1 [3]; [4],111.0 µM
same,"Kd, Ess1 residue 73",Ess1 [3]; [4],89.4 µM
same,"Kd, Ess1 residue 84",Ess1 [3]; [4],119.4 µM
same,"Kd, Ess1 residue 87",Ess1 [3]; [4],180.8 µM
same,"Kd, Ess1 residue 123",Ess1 [3]; [4],227.8 µM
same,"Kd, Ess1 residue 130",Ess1 [3]; [4],175.2 µM
same,"Kd, Ess1 residue 131",Ess1 [3]; [4],207.7 µM
same,"Kd, Ess1 residue 133",Ess1 [3]; [4],166.8 µM
same,"Kd, Ess1 residue 137",Ess1 [3]; [4],128.3 µM
same,"Kd, Ess1 residue 145",Ess1 [3]; [4],205.8 µM
same,"Kd, Ess1 residue 146",Ess1 [3]; [4],235.1 µM
same,"Kd, Ess1 residue 149",Ess1 [3]; [4],100.8 µM
same,"Kd, Ess1 residue 150",Ess1 [3]; [4],113.4 µM
same,"Kd, Ess1 residue 157",Ess1 [3]; [4],151.8 µM
same,"Kd, Ess1 residue 158",Ess1 [3]; [4],122.1 µM
same,"Kd, Ess1 residue 159",Ess1 [3]; [4],176.3 µM
same,"Kd, Ess1 residue 162",Ess1 [3]; [4],71.8 µM
same,"Kd, Ess1 residue 164",Ess1 [3]; [4],188.7 µM

# Source: publication PMC7994582 (Communications Biology, 2021)
